Assay in all cases: relative viability (nuclei count vs DMSO), 5 days (fraction); higher = more cells survive
Compound in assay [1]: CC[C@@H](C)CNCC(=O)N1CCC2=C([C@@H]1COC3=CC=CC(=C3)C)C=CS2 [RU-SKI 43] + NC(=O)Nc1cc(-c2cccc(F)c2)sc1C(=O)N[C@H]1CCCNC1 [AZD7762] (partner 0.2 µM)
The method in brief: (§1)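 Lung cancer cell lines were seeded in 1536-well plates and dosed by pin tool the next day, with either a single drug or a fixed anchor-drug dose combined with five library-drug doses (not always all listed) spaced in √10 steps. Five days later, one step fixed the cells and stained their nuclei (final 0.05% Triton X-100, 1% formaldehyde, 1 ug/ml Hoechst), and nuclei were counted on 4× images. Relative viability is the nuclei count in treated wells divided by the count in vehicle wells, and each value is the median of duplicate plates.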

Compound in assay [2]: Cn1cc(-c2cnc3ccc4ccc(CS(=O)(=O)NCc5ccccn5)cc4c(=O)c3c2)cn1 [MK-8033] + CC(=O)Nc1cccc(-n2c(=O)n(C3CC3)c(=O)c3c(Nc4ccc(I)cc4F)n(C)c(=O)c(C)c32)c1 [Trametinib] (partner 0.02 µM)
The method, boiled down:
as §1

Compound in assay [3]: CC[C@@H](C)CNCC(=O)N1CCC2=C([C@@H]1COC3=CC=CC(=C3)C)C=CS2 [RU-SKI 43] + Nc1nc2[nH]cc(CCc3ccc(C(=O)N[C@@H](CCC(=O)O)C(=O)O)cc3)c2c(=O)[nH]1 [Pemetrexed] (partner 0.2 µM)
The method, boiled down: as §1

Compound in assay [4]: CC[C@@H](C)CNCC(=O)N1CCC2=C([C@@H]1COC3=CC=CC(=C3)C)C=CS2 [RU-SKI 43] + Nc1ncn([C@H]2C[C@H](O)[C@@H](CO)O2)c(=O)n1 [Decitabine] (partner 2 µM)
The method in brief: as §1

For the cell line HCC-15, the relative viability in assay [1] (first compound 0.1 µM) was 1.12; in assay [1] (first compound 0.3162 µM) it was 1.17; in assay [1] (first compound 1 µM) it was 1.15; in assay [1] (first compound 3.162 µM), 1.24; in assay [1] (first compound 10 µM), 1.19; in assay [2] (first compound 0.02 µM), 0.387. Also, the relative viability in assay [2] (first compound 0.06325 µM) was 0.369; in assay [2] (first compound 0.2 µM) it was 0.322; in assay [2] (first compound 0.6325 µM) it was 0.351; in assay [2] (first compound 2 µM), 0.368; in assay [3] (first compound 0.1 µM) it was 0.215; in assay [3] (first compound 0.3162 µM), 0.229. The relative viability in assay [3] (first compound 1 µM) worked out at 0.241; in assay [3] (first compound 3.162 µM) it was 0.217; in assay [3] (first compound 10 µM), 0.2; in assay [4] (first compound 0.1 µM) it was 0.545; in assay [4] (first compound 0.3162 µM), 0.688; in assay [4] (first compound 1 µM), 0.732. The results for the relative viability in assay [4] (first compound 3.162 µM) and in assay [4] (first compound 10 µM) were 0.606 and 0.587, respectively.
HCC-44: the relative viability in assay [1] (first compound 0.1 µM) is 0.995; in assay [1] (first compound 0.3162 µM) it was 1.04; in assay [1] (first compound 1 µM), 1.08; in assay [1] (first compound 3.162 µM), 1.06; in assay [1] (first compound 10 µM), 1.01; in assay [2] (first compound 0.02 µM) it was 1.01. Also, the relative viability was 1.04 in assay [2] (first compound 0.06325 µM); 1.04 in assay [2] (first compound 0.2 µM); 1.02 in assay [2] (first compound 0.6325 µM); 1.04 in assay [2] (first compound 2 µM); 0.624 in assay [3] (first compound 0.1 µM); 0.652 in assay [3] (first compound 0.3162 µM). Further, the relative viability in assay [3] (first compound 1 µM) worked out at 0.639; in assay [3] (first compound 3.162 µM) it was 0.721; in assay [3] (first compound 10 µM), 0.69; in assay [4] (first compound 0.1 µM), 0.98; in assay [4] (first compound 0.3162 µM) it was 0.911; in assay [4] (first compound 1 µM), 0.922. Moreover, the relative viability in assay [4] (first compound 3.162 µM) stood at 0.977; in assay [4] (first compound 10 µM), 0.953.
Consider HCC-78, for which the relative viability in assay [1] (first compound 0.1 µM) was 0.716; in assay [1] (first compound 0.3162 µM), 0.638; in assay [1] (first compound 1 µM), 0.85; in assay [1] (first compound 3.162 µM) it was 0.6; in assay [1] (first compound 10 µM) it was 0.695; in assay [2] (first compound 0.02 µM), 0.611. Besides, the relative viability in assay [2] (first compound 0.06325 µM) was 0.614; in assay [2] (first compound 0.2 µM), 0.739; in assay [2] (first compound 0.6325 µM), 0.325; in assay [2] (first compound 2 µM) it was 0.578; in assay [3] (first compound 0.1 µM), 0.916; in assay [3] (first compound 0.3162 µM), 0.925. Besides, the relative viability is 0.933 in assay [3] (first compound 1 µM); 0.92 in assay [3] (first compound 3.162 µM); 0.923 in assay [3] (first compound 10 µM); 0.676 in assay [4] (first compound 0.1 µM); 0.602 in assay [4] (first compound 0.3162 µM); 0.781 in assay [4] (first compound 1 µM). The relative viability is 0.667 in assay [4] (first compound 3.162 µM) and 0.639 in assay [4] (first compound 10 µM).
On to HCC-366, for which the relative viability in assay [1] (first compound 0.1 µM) worked out at 0.268; in assay [1] (first compound 0.3162 µM), 0.252; in assay [1] (first compound 1 µM), 0.321; in assay [1] (first compound 3.162 µM), 0.34; in assay [1] (first compound 10 µM) it was 0.216; in assay [2] (first compound 0.02 µM), 0.43. Also, the relative viability came to 0.346 in assay [2] (first compound 0.06325 µM); 0.314 in assay [2] (first compound 0.2 µM); 0.279 in assay [2] (first compound 0.6325 µM); 0.362 in assay [2] (first compound 2 µM); 0.187 in assay [3] (first compound 0.1 µM); 0.151 in assay [3] (first compound 0.3162 µM). Moreover, the relative viability in assay [3] (first compound 1 µM) is 0.154; in assay [3] (first compound 3.162 µM), 0.219; in assay [3] (first compound 10 µM) it was 0.228; in assay [4] (first compound 0.1 µM), 0.3; in assay [4] (first compound 0.3162 µM), 0.399; in assay [4] (first compound 1 µM) it was 0.328. Besides, the relative viability in assay [4] (first compound 3.162 µM) was 0.354; in assay [4] (first compound 10 µM), 0.352.

The values above are taken from the supplement of paper PMC10307832.
